Assay results published in ChEMBL document CHEMBL6120948, “Design, Synthesis, and Biological Evaluation of Lysine-Stapled Peptide Inhibitors of p53-MDM2/MDMX Interactions with Potent Antitumor Activity In Vivo” (J Med Chem, 2024).

Columns and labels:
MCF7 = test: Antiproliferative activity against human MCF7 cells expressing wild-type p53 incubated for 72 hrs by MTT assay; assay type: functional, cell-based; settings: MCF7, 72 h
[1] = Antiproliferative activity against human U-87 MG cells expressing wild-type p53 incubated for 72 hrs by MTT assay; assay type: functional, cell-based, U-87MG ATCC
[2] = Induction of alpha-helical conformation in phosphate buffer at pH 7 at 100 uM by CD analysis; assay type: physicochemical; settings: pH 7, 100 µM
[3] = Drug distribution in cytoplasm of human HCT-116 cells at 40 uM incubated for 4 hrs by Hoechst 33342/DiD dye based confocal microscopy; assay type: ADME, subcellular; settings: hct-116, 4 h
[4] = Drug distribution in nucleus of human HCT-116 cells at 40 uM incubated for 4 hrs by Hoechst 33342/DiD dye based confocal microscopy; assay type: ADME, subcellular; settings: hct-116, 4 h

Row | Molecule | IC50 (MCF7) [µM] | IC50 [1] [µM] | Activity [2] [%] | Drug uptake [3] | Drug uptake [4]
1 | CC(=O)N[C@@H](CC(C)C)C(=O)N[C@H](C(=O)N[C@@H](Cc1ccccc1)C(=O)N[C@H]1CCCCNCc2ccc(cc2)CNCCCC[C@@H](C(=O)N[C@@H](CO)C(=O)N[C@@H](C)C(=O)N[C@@H](C)C(N)=O)NC(=O)[C@H](CC(C)C)NC(=O)[C@H](CCC(N)=O)NC(=O)[C@H](C)NC(=O)[C@H](Cc2c[nH]c3ccccc23)NC(=O)[C@H](Cc2ccc(O)cc2)NC(=O)[C@H](Cc2c[nH]cn2)NC1=O)[C@@H](C)O | > 160 | > 160 | 11 |  | 
2 | CC(=O)N[C@@H](CC(C)C)C(=O)N[C@H](C(=O)N[C@@H](Cc1ccccc1)C(=O)N[C@@H](CCC(=O)O)C(=O)N[C@H]1CCCCNCc2ccc(cc2)CNCCCC[C@@H](C(=O)N[C@@H](CC(C)C)C(=O)N[C@H](C(=O)N[C@@H](CO)C(=O)N[C@@H](C)C(=O)N[C@@H](C)C(N)=O)[C@@H](C)O)NC(=O)[C@H](C)NC(=O)[C@H](Cc2c[nH]c3ccccc23)NC(=O)[C@H](Cc2ccc(O)cc2)NC1=O)[C@@H](C)O | 6.91 | > 160 | 11 |  | 
3 | CC(=O)N[C@@H](CC(C)C)C(=O)N[C@H](C(=O)N[C@@H](Cc1ccccc1)C(=O)N[C@H]1CCCCNCc2cccc(c2)CNCCCC[C@@H](C(=O)N[C@@H](CO)C(=O)N[C@@H](C)C(=O)N[C@@H](C)C(N)=O)NC(=O)[C@H](CC(C)C)NC(=O)[C@H](CCC(N)=O)NC(=O)[C@H](C)NC(=O)[C@H](Cc2c[nH]c3ccccc23)NC(=O)[C@H](Cc2ccc(O)cc2)NC(=O)[C@H](Cc2c[nH]cn2)NC1=O)[C@@H](C)O | > 160 | 52.9 | 11 |  | 
4 | CSCC[C@H](NC(=O)[C@H](CC(C)C)NC(=O)[C@H](CCC(N)=O)NC(=O)[C@@H]1CCCCNCc2ccccc2CNCCCC[C@H](NC(=O)[C@H](Cc2ccccc2)NC(=O)[C@@H](NC(=O)[C@H](CC(C)C)NC(C)=O)[C@@H](C)O)C(=O)N[C@@H](CCC(=O)O)C(=O)N[C@@H](Cc2ccc(O)cc2)C(=O)N[C@@H](Cc2c[nH]c3ccccc23)C(=O)N1)C(=O)N[C@@H](CCC(N)=O)C(=O)N[C@@H](C)C(=O)N[C@@H](C)C(N)=O | > 160 | 105 | 11 |  | 
5 | CC(=O)N[C@@H](CC(C)C)C(=O)N[C@H](C(=O)N[C@@H](Cc1ccccc1)C(=O)N[C@H]1CCCCNCc2ccccc2CNCCCC[C@@H](C(=O)N[C@@H](CO)C(=O)N[C@@H](C)C(=O)N[C@@H](C)C(N)=O)NC(=O)[C@H](CC(C)C)NC(=O)[C@H](CCC(N)=O)NC(=O)[C@H](C)NC(=O)[C@H](Cc2c[nH]c3ccccc23)NC(=O)[C@H](Cc2ccc(O)cc2)NC(=O)[C@H](Cc2c[nH]cn2)NC1=O)[C@@H](C)O | > 160 | > 160 | 11 |  | 
6 | CC(C)C[C@H](NC(=O)CCNC(=O)c1ccc2c(c1)C(=O)OC21c2ccc(O)cc2Oc2cc(O)ccc21)C(=O)N[C@H](C(=O)N[C@@H](Cc1ccccc1)C(=O)N[C@H]1CCCCNCc2cccc(c2)CNCCCC[C@@H](C(=O)N[C@@H](CCC(N)=O)C(=O)N[C@@H](CC(C)C)C(=O)N[C@H](C(=O)N[C@@H](CO)C(=O)N[C@@H](C)C(=O)N[C@@H](C)C(N)=O)[C@@H](C)O)NC(=O)[C@H](Cc2c[nH]c3ccccc23)NC(=O)[C@H](Cc2ccc(O)cc2)NC(=O)[C@H](Cc2c[nH]cn2)NC1=O)[C@@H](C)O |  |  |  | Active | Active
7 | CC(=O)N[C@@H](CC(C)C)C(=O)N[C@H](C(=O)N[C@@H](Cc1ccccc1)C(=O)N[C@H]1CCCCNCc2ccccc2CNCCCC[C@@H](C(=O)N[C@@H](CCC(N)=O)C(=O)N[C@@H](CC(C)C)C(=O)N[C@H](C(=O)N[C@@H](CO)C(=O)N[C@@H](C)C(=O)N[C@@H](C)C(N)=O)[C@@H](C)O)NC(=O)[C@H](Cc2c[nH]c3ccccc23)NC(=O)[C@H](Cc2ccc(O)cc2)NC(=O)[C@H](Cc2c[nH]cn2)NC1=O)[C@@H](C)O | 11.3 | > 160 | 11 |  | 
8 | CC(=O)N[C@@H](CC(C)C)C(=O)N[C@H](C(=O)N[C@@H](Cc1ccccc1)C(=O)N[C@@H](CCC(=O)O)C(=O)N[C@H]1CCCCNCc2ccccc2CNCCCC[C@@H](C(=O)N[C@@H](CC(C)C)C(=O)N[C@H](C(=O)N[C@@H](CO)C(=O)N[C@@H](C)C(=O)N[C@@H](C)C(N)=O)[C@@H](C)O)NC(=O)[C@H](C)NC(=O)[C@H](Cc2c[nH]c3ccccc23)NC(=O)[C@H](Cc2ccc(O)cc2)NC1=O)[C@@H](C)O | 145 | > 160 | 11 |  | 
9 | CC(=O)N[C@@H](CC(C)C)C(=O)N[C@H](C(=O)N[C@@H](Cc1ccccc1)C(=O)N[C@H]1CCCCNCC#CCNCCCC[C@@H](C(=O)N[C@@H](CO)C(=O)N[C@@H](C)C(=O)N[C@@H](C)C(N)=O)NC(=O)[C@H](CC(C)C)NC(=O)[C@H](CCC(N)=O)NC(=O)[C@H](C)NC(=O)[C@H](Cc2c[nH]c3ccccc23)NC(=O)[C@H](Cc2ccc(O)cc2)NC(=O)[C@H](Cc2c[nH]cn2)NC1=O)[C@@H](C)O | > 160 | > 160 | 11 |  | 
10 | CC(=O)N[C@@H](CC(C)C)C(=O)N[C@H](C(=O)N[C@@H](Cc1ccccc1)C(=O)N[C@@H](CCC(=O)O)C(=O)N[C@H]1CCCCNCc2cccc(c2)CNCCCC[C@@H](C(=O)N[C@@H](CC(C)C)C(=O)N[C@H](C(=O)N[C@@H](CO)C(=O)N[C@@H](C)C(=O)N[C@@H](C)C(N)=O)[C@@H](C)O)NC(=O)[C@H](C)NC(=O)[C@H](Cc2c[nH]c3ccccc23)NC(=O)[C@H](Cc2ccc(O)cc2)NC1=O)[C@@H](C)O | > 160 | 138 | 11 |  | 
11 | CSCC[C@H](NC(=O)[C@H](CC(C)C)NC(=O)[C@H](CCC(N)=O)NC(=O)[C@@H]1CCCCNCc2cccc(c2)CNCCCC[C@H](NC(=O)[C@H](Cc2ccccc2)NC(=O)[C@@H](NC(=O)[C@H](CC(C)C)NC(C)=O)[C@@H](C)O)C(=O)N[C@@H](CCC(=O)O)C(=O)N[C@@H](Cc2ccc(O)cc2)C(=O)N[C@@H](Cc2c[nH]c3ccccc23)C(=O)N1)C(=O)N[C@@H](CCC(N)=O)C(=O)N[C@@H](C)C(=O)N[C@@H](C)C(N)=O | > 160 | 21.9 | 11 |  | 
12 | CC(=O)N[C@@H](CC(C)C)C(=O)N[C@H](C(=O)N[C@@H](Cc1ccccc1)C(=O)N[C@H]1CCCCNCC#CCNCCCC[C@@H](C(=O)N[C@@H](CCC(N)=O)C(=O)N[C@@H](CC(C)C)C(=O)N[C@H](C(=O)N[C@@H](CO)C(=O)N[C@@H](C)C(=O)N[C@@H](C)C(N)=O)[C@@H](C)O)NC(=O)[C@H](Cc2c[nH]c3ccccc23)NC(=O)[C@H](Cc2ccc(O)cc2)NC(=O)[C@H](Cc2c[nH]cn2)NC1=O)[C@@H](C)O | > 160 | > 160 | 11 |  | 
13 | CC(=O)N[C@@H](CC(C)C)C(=O)N[C@H](C(=O)N[C@@H](Cc1ccccc1)C(=O)N[C@@H](CCC(=O)O)C(=O)N[C@H]1CCCCNCC#CCNCCCC[C@@H](C(=O)N[C@@H](CC(C)C)C(=O)N[C@H](C(=O)N[C@@H](CO)C(=O)N[C@@H](C)C(=O)N[C@@H](C)C(N)=O)[C@@H](C)O)NC(=O)[C@H](C)NC(=O)[C@H](Cc2c[nH]c3ccccc23)NC(=O)[C@H](Cc2ccc(O)cc2)NC1=O)[C@@H](C)O | 19.9 | > 160 | 11 |  | 
14 | CC(=O)N[C@@H](CC(C)C)C(=O)N[C@H](C(=O)N[C@@H](Cc1ccccc1)C(=O)N[C@H]1CCCCNCc2ccc(cc2)CNCCCC[C@@H](C(=O)N[C@@H](CCC(N)=O)C(=O)N[C@@H](CC(C)C)C(=O)N[C@H](C(=O)N[C@@H](CO)C(=O)N[C@@H](C)C(=O)N[C@@H](C)C(N)=O)[C@@H](C)O)NC(=O)[C@H](Cc2c[nH]c3ccccc23)NC(=O)[C@H](Cc2ccc(O)cc2)NC(=O)[C@H](Cc2c[nH]cn2)NC1=O)[C@@H](C)O | > 160 | > 160 | 11 |  | 
15 | CSCC[C@H](NC(=O)[C@H](CC(C)C)NC(=O)[C@H](CCC(N)=O)NC(=O)[C@@H]1CCCCNCC#CCNCCCC[C@H](NC(=O)[C@H](Cc2ccccc2)NC(=O)[C@@H](NC(=O)[C@H](CC(C)C)NC(C)=O)[C@@H](C)O)C(=O)N[C@@H](CCC(=O)O)C(=O)N[C@@H](Cc2ccc(O)cc2)C(=O)N[C@@H](Cc2c[nH]c3ccccc23)C(=O)N1)C(=O)N[C@@H](CCC(N)=O)C(=O)N[C@@H](C)C(=O)N[C@@H](C)C(N)=O | 112 | > 160 | 11 |  | 
16 | CSCC[C@H](NC(=O)[C@H](CC(C)C)NC(=O)[C@H](CCC(N)=O)NC(=O)[C@@H]1CCCCNCc2ccc(cc2)CNCCCC[C@H](NC(=O)[C@H](Cc2ccccc2)NC(=O)[C@@H](NC(=O)[C@H](CC(C)C)NC(=O)CCNC(=O)c2ccc3c(c2)C(=O)OC32c3ccc(O)cc3Oc3cc(O)ccc32)[C@@H](C)O)C(=O)N[C@@H](CCC(=O)O)C(=O)N[C@@H](Cc2ccc(O)cc2)C(=O)N[C@@H](Cc2c[nH]c3ccccc23)C(=O)N1)C(=O)N[C@@H](CCC(N)=O)C(=O)N[C@@H](C)C(=O)N[C@@H](C)C(N)=O |  |  |  | Not_active | 
17 | Ac-LTFEHYWAQLTS-NH2 |  |  | 11 |  | 
